From patent US12077503B2, “Substituted cyclic amides and their use as herbicides” (FMC CORPORATION, priority 2015, dated 2024)

Assays:
Test in all cases: Test C preemergence
Assay type in all cases: in vivo
[1] = system: waterhemp (common waterhemp, Amaranthus rudis); conditions: for Plant response rating, Waterhemp: scale 0 to 100, 0 no effect, 100 complete control
In short: (§1)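 Greenhouse test: seeds in a loam and sand blend treated preemergence, or seedlings at the 1- to 4-leaf stage (2 to 18 cm) in a peat, vermiculite and limestone mix treated postemergence, with test chemicals in a surfactant-containing non-phytotoxic solvent. Scored by eye at 13 to 15 d relative to controls, 0 (no effect) to 100 (complete control).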

[2] = system: oilseed rape (Brassica napus); conditions: for Plant response rating, Oilseed Rape: scale 0 to 100, 0 no effect, 100 complete control
In short: as §1

soybean (Glycine max) = conditions: for Plant response rating, Soybean: scale 0 to 100, 0 no effect, 100 complete control
In short: as §1

[3] = system: blackgrass (Alopecurus myosuroides); conditions: for Plant response rating, Blackgrass: scale 0 to 100, 0 no effect, 100 complete control
In short: as §1

[4] = system: wheat (winter wheat, Triticum aestivum); conditions: for Plant response rating, Wheat: scale 0 to 100, 0 no effect, 100 complete control
In short: as §1

[5] = system: nutsedge, yellow (yellow nutsedge, Cyperus esculentus); conditions: for Plant response rating, Nutsedge, Yellow: scale 0 to 100, 0 no effect, 100 complete control
In short: as §1

[6] = system: ryegrass, Italian (Italian ryegrass, Lolium multiflorum); conditions: for Plant response rating, Ryegrass, Italian: scale 0 to 100, 0 no effect, 100 complete control
In short: as §1

[7] = system: morningglory (Ipomoea coccinea); conditions: for Plant response rating, Morningglory: scale 0 to 100, 0 no effect, 100 complete control
In short: as §1

[8] = system: Galium (catchweed bedstraw, Galium aparine); conditions: for Plant response rating, Galium: scale 0 to 100, 0 no effect, 100 complete control
In short: as §1

corn (Zea mays) = conditions: for Plant response rating, Corn: scale 0 to 100, 0 no effect, 100 complete control
In short: as §1

[9] = system: foxtail, giant (giant foxtail, Setaria faberii); conditions: for Plant response rating, Foxtail, Giant: scale 0 to 100, 0 no effect, 100 complete control
In short: as §1

[10] = system: pigweed (Amaranthus retroflexus); conditions: for Plant response rating, Pigweed: scale 0 to 100, 0 no effect, 100 complete control
In short: as §1

[11] = system: velvetleaf (Abutilon theophrasti); conditions: for Plant response rating, Velvetleaf: scale 0 to 100, 0 no effect, 100 complete control
In short: as §1

[12] = system: crabgrass, large (large crabgrass, Digitaria sanguinalis); conditions: for Plant response rating, Crabgrass, Large: scale 0 to 100, 0 no effect, 100 complete control
In short: as §1

[13] = system: johnsongrass (Sorghum halepense); conditions: for Plant response rating, Johnsongrass: scale 0 to 100, 0 no effect, 100 complete control
In short: as §1

[14] = system: ragweed (common ragweed, Ambrosia elatior); conditions: for Plant response rating, Ragweed: scale 0 to 100, 0 no effect, 100 complete control
In short: as §1

[15] = system: barnyardgrass (Echinochloa crus-galli); conditions: for Plant response rating, Barnyardgrass: scale 0 to 100, 0 no effect, 100 complete control
In short: as §1

[16] = 31 g ai/ha, 0 is no effect, 100 is complete control

SMILES: O=C1NCC(c2ccc(I)cc2)C1C(=O)Nc1cccc(F)c1F (racemic) [Compound 700]
- Plant response rating (scale of 0 to 100), Waterhemp [1, 16]: 10
- Plant response rating, Waterhemp ([1]; 62 g ai/ha): 65
- Plant response rating, Waterhemp ([1]; 125 g ai/ha): 75
- Plant response rating, Waterhemp ([1]; 250 g ai/ha): 70
- Plant response rating (scale of 0 to 100), Oilseed Rape [2, 16]: 0
- Plant response rating, Oilseed Rape ([2]; 62 g ai/ha): 30
- Plant response rating, Oilseed Rape ([2]; 125 g ai/ha): 60
- Plant response rating, Oilseed Rape ([2]; 250 g ai/ha): 50
- Plant response rating (scale of 0 to 100), Soybean (soybean (Glycine max); [16]): 100
- Plant response rating, Soybean (soybean (Glycine max); 62 g ai/ha): 0
- Plant response rating, Soybean (soybean (Glycine max); 125 g ai/ha): 15
- Plant response rating, Soybean (soybean (Glycine max); 250 g ai/ha): 0
- Plant response rating (scale of 0 to 100), Blackgrass [3, 16]: 20
- Plant response rating, Blackgrass ([3]; 62 g ai/ha): 55
- Plant response rating, Blackgrass ([3]; 125 g ai/ha): 60
- Plant response rating, Blackgrass ([3]; 250 g ai/ha): 85
- Plant response rating (scale of 0 to 100), Wheat [4, 16]: 0
- Plant response rating, Wheat ([4]; 62 g ai/ha): 0
- Plant response rating, Wheat ([4]; 125 g ai/ha): 0
- Plant response rating, Wheat ([4]; 250 g ai/ha): 70
- Plant response rating (scale of 0 to 100), Nutsedge, Yellow [5, 16]: 0
- Plant response rating, Nutsedge, Yellow ([5]; 62 g ai/ha): 0
- Plant response rating, Nutsedge, Yellow ([5]; 125 g ai/ha): 0
- Plant response rating, Nutsedge, Yellow ([5]; 250 g ai/ha): 0
- Plant response rating (scale of 0 to 100), Ryegrass, Italian [6, 16]: 0
- Plant response rating, Ryegrass, Italian ([6]; 62 g ai/ha): 20
- Plant response rating, Ryegrass, Italian ([6]; 125 g ai/ha): 35
- Plant response rating, Ryegrass, Italian ([6]; 250 g ai/ha): 45
- Plant response rating (scale of 0 to 100), Morningglory [7, 16]: 0
- Plant response rating, Morningglory ([7]; 62 g ai/ha): 0
- Plant response rating, Morningglory ([7]; 125 g ai/ha): 0
- Plant response rating, Morningglory ([7]; 250 g ai/ha): 0
- Plant response rating (scale of 0 to 100), Galium [8, 16]: 0
- Plant response rating, Galium ([8]; 62 g ai/ha): 0
- Plant response rating, Galium ([8]; 125 g ai/ha): 50
- Plant response rating, Galium ([8]; 250 g ai/ha): 40
- Plant response rating (scale of 0 to 100), Corn (corn (Zea mays); [16]): 0
- Plant response rating, Corn (corn (Zea mays); 62 g ai/ha): 0
- Plant response rating, Corn (corn (Zea mays); 125 g ai/ha): 10
- Plant response rating, Corn (corn (Zea mays); 250 g ai/ha): 50
- Plant response rating (scale of 0 to 100), Foxtail, Giant [9, 16]: 80
- Plant response rating, Foxtail, Giant ([9]; 62 g ai/ha): 85
- Plant response rating, Foxtail, Giant ([9]; 125 g ai/ha): 90
- Plant response rating, Foxtail, Giant ([9]; 250 g ai/ha): 90
- Plant response rating (scale of 0 to 100), Pigweed [10, 16]: 0
- Plant response rating, Pigweed ([10]; 62 g ai/ha): 15
- Plant response rating, Pigweed ([10]; 125 g ai/ha): 50
- Plant response rating, Pigweed ([10]; 250 g ai/ha): 65
- Plant response rating (scale of 0 to 100), Velvetleaf [11, 16]: 0
- Plant response rating, Velvetleaf ([11]; 62 g ai/ha): 0
- Plant response rating, Velvetleaf ([11]; 125 g ai/ha): 20
- Plant response rating, Velvetleaf ([11]; 250 g ai/ha): 40
- Plant response rating (scale of 0 to 100), Crabgrass, Large [12, 16]: 95
- Plant response rating, Crabgrass, Large ([12]; 62 g ai/ha): 95
- Plant response rating, Crabgrass, Large ([12]; 125 g ai/ha): 95
- Plant response rating, Crabgrass, Large ([12]; 250 g ai/ha): 98
- Plant response rating (scale of 0 to 100), Johnsongrass [13, 16]: 100
- Plant response rating, Johnsongrass ([13]; 62 g ai/ha): 0
- Plant response rating, Johnsongrass ([13]; 125 g ai/ha): 10
- Plant response rating, Johnsongrass ([13]; 250 g ai/ha): 60
- Plant response rating (scale of 0 to 100), Ragweed [14, 16]: 10
- Plant response rating, Ragweed ([14]; 62 g ai/ha): 50
- Plant response rating, Ragweed ([14]; 125 g ai/ha): 75
- Plant response rating, Ragweed ([14]; 250 g ai/ha): 75
- Plant response rating (scale of 0 to 100), Barnyardgrass [15, 16]: 75
- Plant response rating, Barnyardgrass ([15]; 62 g ai/ha): 85
- Plant response rating, Barnyardgrass ([15]; 125 g ai/ha): 90
- Plant response rating, Barnyardgrass ([15]; 250 g ai/ha): 95
